Experimental data: patent US11753407B2, “Compounds for treating spinal muscular atrophy” (PTC Therapeutics, Inc., priority 2012, dated 2023)

Assays:
[1] = system: Smn protein in SMA patient fibroblast cells (GM03813); experiment: Smn protein assay in cultured cells (SMN HTRF); type: cell-based, human; conditions: SMA patient fibroblast cells, 48 hours; for EC1.5x for Smn protein expression: 7-point concentration curve, SMN HTRF, concentration producing 1.5 times Smn protein vs DMSO vehicle control; for maximum fold (Fold) increase of Smn protein: 7-point concentration data, fold relative to vehicle control
Summary of the method: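 Smn protein quantified by HTRF with anti-SMN d2/kryptate pair, 665/620 nm ratio blank-corrected, in RIPA lysates of GM03813 fibroblasts after 48 h compound exposure (7 concentrations, 3.16-fold steps, triplicates). Values: concentration producing 1.5× vehicle Smn level, and maximal fold increase.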

[2] = system: SMN2 minigene mRNA (SMN2-A minigene) in HEK293H cells; experiment: SMN2 minigene mRNA splicing RT-qPCR assay in cultured cells; type: cell-based, human; conditions: Homo sapiens, HEK293-H; concentration increasing full length SMN2 mRNA 1.5-fold relative to vehicle-treated cells; HEK293H cells with SMN2-A minigene, 24 hours, 7-point concentration data; read-out: EC1.5x for production of full length SMN2 mRNA
Summary of the method: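 EC1.5× = concentration raising full-length SMN2 minigene mRNA 1.5-fold over vehicle, from 7-point curves in duplicate. Stably transfected HEK293H cells exposed 24 h at 37 °C; lysates assayed by multiplex RT-qPCR, minigene FL signal normalized to GAPDH via modified ΔΔCt.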

SMILES | melting point | EC1.5x for Smn protein expression [1] | maximum fold (Fold) increase of Smn protein [1] | EC (1.5-fold increase) [2]
CNCCNc1ccc2nc(-c3ccc(OC)c(OC)c3)cc(=O)n2c1 [Compound 181, 2-(3,4-dimethoxyphenyl)-7-{[2-(methylamino)ethyl]amino}-4H-pyrido[1,2-a]pyrimidin-4-one] | 135 to 138 °C |  | * (A maximum fold increase of ≤1.2 is indicated by one star (*)) | 1 to 3 µM
COc1ccc(-c2cc(=O)n3cc(C4=CCNCC4)ccc3n2)cc1F [Compound 186, 2-(3-fluoro-4-methoxyphenyl)-7-(1,2,3,6-tetrahydropyridin-4-yl)-4H-pyrido[1,2-a]pyrimidin-4-one] | 182 to 184 °C | *** (an EC1.5× between >0.3 μM and ≤1 μM is indicated by three stars (***)) | **** (a fold increase between >1.5 and ≤1.65 is indicated by four stars (****)) | < 0.1 µM
Cc1nc2ccc(-c3cc(=O)n4cc(N5CCCN(C)CC5)ccc4n3)cc2o1 [Compound 196, 2-(2-methyl-1,3-benzoxazol-6-yl)-7-(4-methyl-1,4-diazepan-1-yl)-4H-pyrido[1,2-a]pyrimidin-4-one] | 146 to 150 °C | **** (an EC1.5x≤0.3 μM is indicated by four stars (****)) | **** (a fold increase between >1.5 and ≤1.65 is indicated by four stars (****)) | < 0.1 µM
Cc1nc2ccc(-c3cc(=O)n4cc(N5CCN6CCC[C@H]6C5)ccc4n3)cc2o1 [Compound 197, 7-[(8aS)-hexahydropyrrolo[1,2-a]pyrazin-2(1H)-yl]-2-(2-methyl-1,3-benzoxazol-6-yl)-4H-pyrido[1,2-a]pyrimidin-4-one] | 214 to 217 °C | **** (an EC1.5x≤0.3 μM is indicated by four stars (****)) | ***** (a fold increase >1.65 is indicated by five stars (*****)) | 0.1 to 0.3 µM
Cc1nc2ccc(-c3cc(=O)n4cc(N5CCN6CCC[C@@H]6C5)ccc4n3)cc2o1 [Compound 198, 7-[(8aR)-hexahydropyrrolo[1,2-a]pyrazin-2(1H)-yl]-2-(2-methyl-1,3-benzoxazol-6-yl)-4H-pyrido[1,2-a]pyrimidin-4-one] | 194 to 199 °C | **** (an EC1.5x≤0.3 μM is indicated by four stars (****)) | **** (a fold increase between >1.5 and ≤1.65 is indicated by four stars (****)) | < 0.1 µM
COc1cnc(-c2cc(=O)n3cc(N4CCNCC4)ccc3n2)cc1OC [Compound 199, 2-(4,5-dimethoxypyridin-2-yl)-7-(piperazin-1-yl)-4H-pyrido[1,2-a]pyrimidin-4-one] | 207 to 209 °C | ** (an EC1.5× between >1 μM and ≤3 μM is indicated by two stars (**)) | **** (a fold increase between >1.5 and ≤1.65 is indicated by four stars (****)) | 0.3 to 1 µM
COc1ccc(-c2cc(=O)n3cc(N4CCC(N(C)C)C4)ccc3c2)cc1F (stereo not drawn) [Compound 200, 7-[3-(dimethylamino)pyrrolidin-1-yl]-2-(3-fluoro-4-methoxyphenyl)-4H-quinolizin-4-one] | 259 to 261 °C |  | * (A maximum fold increase of ≤1.2 is indicated by one star (*)) | 1 to 3 µM
CCN1CCN(c2ccc3nc(-c4ccc5nc(C)oc5c4)cc(=O)n3c2)CC1 [Compound 202, 7-(4-ethylpiperazin-1-yl)-2-(2-methyl-1,3-benzoxazol-6-yl)-4H-pyrido[1,2-a]pyrimidin-4-one] | 212 to 216 °C |  | ** (a fold increase between >1.2 and ≤1.35 is indicated by two stars (**)) | 0.3 to 1 µM
COc1ccc(-c2cc(=O)n3cc(C4=CCN(C)CC4)ccc3n2)cc1F [Compound 204, 2-(3-fluoro-4-methoxyphenyl)-7-(1-methyl-1,2,3,6-tetrahydropyridin-4-yl)-4H-pyrido[1,2-a]pyrimidin-4-one] | 129 to 132 °C | **** (an EC1.5x≤0.3 μM is indicated by four stars (****)) | **** (a fold increase between >1.5 and ≤1.65 is indicated by four stars (****)) | < 0.1 µM

Further lines, with some results ahead:

melting point | SMILES | EC1.5x for Smn protein expression [1] | maximum fold (Fold) increase of Smn protein [1] | EC (1.5-fold increase) [2]
204 to 206 °C | Cc1cn(-c2cc(=O)n3cc(N4CCN[C@@H](C)C4)ccc3n2)cn1 [Compound 180, 2-(4-methyl-1H-imidazol-1-yl)-7-[(3S)-3-methylpiperazin-1-yl]-4H-pyrido[1,2-a]pyrimidin-4-one] | ** (an EC1.5× between >1 μM and ≤3 μM is indicated by two stars (**)) | **** (a fold increase between >1.5 and ≤1.65 is indicated by four stars (****)) | 1 to 3 µM
167 to 169 °C | COc1c(F)cc(-c2cc(=O)n3cc(N4CCNCC4)ccc3n2)cc1F [Compound 183, 2-(3,5-difluoro-4-methoxyphenyl)-7-(piperazin-1-yl)-4H-pyrido[1,2-a]pyrimidin-4-one] |  | ** (a fold increase between >1.2 and ≤1.35 is indicated by two stars (**)) | 1 to 3 µM
182 to 184 °C | COc1c(F)cc(-c2cc(=O)n3cc(N4CCN[C@@H](C)C4)ccc3n2)cc1F [Compound 184, 2-(3,5-difluoro-4-methoxyphenyl)-7-[(3S)-3-methylpiperazin-1-yl]-4H-pyrido[1,2-a]pyrimidin-4-one] |  | ** (a fold increase between >1.2 and ≤1.35 is indicated by two stars (**)) | 1 to 3 µM
196 to 201 °C | COc1ccc(-c2cc(=O)n3cc(N4CCC(N(C)C)CC4)ccc3n2)cc1F [Compound 185, 7-[4-(dimethylamino)piperidin-1-yl]-2-(3-fluoro-4-methoxyphenyl)-4H-pyrido[1,2-a]pyrimidin-4-one] |  | *** (a fold increase between >1.35 and ≤1.5 is indicated by three stars (***)) | < 0.1 µM
188 to 190 °C | C[C@H]1CN(c2ccc3nc(-c4cc(F)cc(Cl)c4)cc(=O)n3c2)CCN1 [Compound 189, 2-(3-chloro-5-fluorophenyl)-7-[(3S)-3-methylpiperazin-1-yl]-4H-pyrido[1,2-a]pyrimidin-4-one] | *** (an EC1.5× between >0.3 μM and ≤1 μM is indicated by three stars (***)) | **** (a fold increase between >1.5 and ≤1.65 is indicated by four stars (****)) | 0.3 to 1 µM
180 to 184 °C | O=c1cc(-c2cc(F)cc(Cl)c2)nc2ccc(N3CCNCC3)cn12 [Compound 190, 2-(3-chloro-5-fluorophenyl)-7-(piperazin-1-yl)-4H-pyrido[1,2-a]pyrimidin-4-one] | ** (an EC1.5× between >1 μM and ≤3 μM is indicated by two stars (**)) | **** (a fold increase between >1.5 and ≤1.65 is indicated by four stars (****)) | 0.3 to 1 µM
175 to 177 °C | Cc1nc2ccc(-c3cc(=O)n4cc(N5CCN[C@H](C)C5)ccc4n3)cc2o1 [Compound 193, 2-(2-methyl-1,3-benzoxazol-6-yl)-7-[(3R)-3-methylpiperazin-1-yl]-4H-pyrido[1,2-a]pyrimidin-4-one] | **** (an EC1.5x≤0.3 μM is indicated by four stars (****)) | ***** (a fold increase >1.65 is indicated by five stars (*****)) | < 0.1 µM
160 to 162 °C | Cc1nc2ccc(-c3cc(=O)n4cc(N5CCNC(C)(C)C5)ccc4n3)cc2o1 [Compound 194, 7-(3,3-dimethylpiperazin-1-yl)-2-(2-methyl-1,3-benzoxazol-6-yl)-4H-pyrido[1,2-a]pyrimidin-4-one] | **** (an EC1.5x≤0.3 μM is indicated by four stars (****)) | ***** (a fold increase >1.65 is indicated by five stars (*****)) | < 0.1 µM
134 to 137 °C | Cc1nc2ccc(-c3cc(=O)n4cc(N5CCCNCC5)ccc4n3)cc2o1 [Compound 195, 7-(1,4-diazepan-1-yl)-2-(2-methyl-1,3-benzoxazol-6-yl)-4H-pyrido[1,2-a]pyrimidin-4-one] | *** (an EC1.5× between >0.3 μM and ≤1 μM is indicated by three stars (***)) | **** (a fold increase between >1.5 and ≤1.65 is indicated by four stars (****)) | < 0.1 µM
187 to 192 °C | COc1ccc(-c2cc(=O)n3cc(N4CC[C@H](N(C)C)C4)ccc3n2)cc1F [Compound 205, 7-[(3S)-3-(dimethylamino)pyrrolidin-1-yl]-2-(3-fluoro-4-methoxyphenyl)-4H-pyrido[1,2-a]pyrimidin-4-one] |  | ** (a fold increase between >1.2 and ≤1.35 is indicated by two stars (**)) | 0.3 to 1 µM
